This assay has as its target Angiotensin-converting enzyme (Homo sapiens, UniProt P12821). As to the kind of experiment: Inhibitory constant angiotensin converting enzyme.

Sequence of Angiotensin-converting enzyme (P12821 whole entry): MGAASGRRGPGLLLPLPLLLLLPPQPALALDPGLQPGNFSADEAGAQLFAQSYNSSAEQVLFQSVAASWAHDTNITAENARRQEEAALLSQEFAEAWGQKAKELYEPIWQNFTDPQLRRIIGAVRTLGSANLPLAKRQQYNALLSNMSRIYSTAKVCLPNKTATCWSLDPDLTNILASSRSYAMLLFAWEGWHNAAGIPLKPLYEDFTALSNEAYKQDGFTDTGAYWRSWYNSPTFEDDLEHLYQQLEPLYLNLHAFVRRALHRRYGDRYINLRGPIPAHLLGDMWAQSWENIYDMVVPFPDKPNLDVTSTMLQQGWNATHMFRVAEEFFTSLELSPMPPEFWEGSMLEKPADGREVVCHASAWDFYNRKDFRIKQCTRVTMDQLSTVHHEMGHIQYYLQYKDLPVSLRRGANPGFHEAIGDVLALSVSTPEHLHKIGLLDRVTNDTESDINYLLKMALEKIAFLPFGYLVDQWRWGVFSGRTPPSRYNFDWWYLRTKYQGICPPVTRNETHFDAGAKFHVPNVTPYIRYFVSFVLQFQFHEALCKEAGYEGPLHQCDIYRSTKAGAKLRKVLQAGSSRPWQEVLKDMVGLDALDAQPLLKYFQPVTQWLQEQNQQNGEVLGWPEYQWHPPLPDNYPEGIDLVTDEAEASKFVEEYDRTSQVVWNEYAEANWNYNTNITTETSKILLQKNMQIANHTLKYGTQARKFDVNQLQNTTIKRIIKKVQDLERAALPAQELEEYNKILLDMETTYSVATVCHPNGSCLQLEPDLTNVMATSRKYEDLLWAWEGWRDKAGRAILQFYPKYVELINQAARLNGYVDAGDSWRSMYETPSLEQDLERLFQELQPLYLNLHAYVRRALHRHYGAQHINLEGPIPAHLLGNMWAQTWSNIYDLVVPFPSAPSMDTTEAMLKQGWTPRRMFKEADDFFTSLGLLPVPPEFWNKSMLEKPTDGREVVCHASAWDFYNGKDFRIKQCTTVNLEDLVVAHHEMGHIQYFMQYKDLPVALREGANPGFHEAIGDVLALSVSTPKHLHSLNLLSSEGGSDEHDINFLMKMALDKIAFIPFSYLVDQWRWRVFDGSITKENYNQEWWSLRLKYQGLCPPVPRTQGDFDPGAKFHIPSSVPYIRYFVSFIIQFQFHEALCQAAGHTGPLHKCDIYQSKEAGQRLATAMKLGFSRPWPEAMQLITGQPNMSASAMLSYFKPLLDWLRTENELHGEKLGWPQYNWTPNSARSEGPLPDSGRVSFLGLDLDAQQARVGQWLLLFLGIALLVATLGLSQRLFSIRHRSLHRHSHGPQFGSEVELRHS

In general, Ki refers to a measure of affinity in units of concentration, obtained from inhibition or displacement. A low value points to tighter binding. Regarding `O=C(O)CN1Cc2ccccc2CC(N[C@H](CCc2ccccc2)C(=O)O)C1=O` (stereo partly specified), the affinity, expressed as Ki, was 0.01 µM.

The values above are taken from ChEMBL document CHEMBL1125853, “An acyliminium ion route to and Anti phe-gly dipeptide mimetics” (Bioorg Med Chem Lett, 1991).
